Laboratory results reported in ChEMBL document CHEMBL1128712, “Increasing binding constants of ligands to carbonic anhydrase by using "greasy tails"” (J Med Chem, 1995).

Tests used:
[1] = Partition coefficient (logD7.5); assay type: physicochemical; conditions: octanol/water, pH 7.5
[2] = target: Carbonic anhydrase 2 (Bos taurus) (UniProt P00921); experiment: Evaluation of binding constant to bovine carbonic anhydrase II, measured by fluorescence in 20 mM phosphate buffer (pH=7.5)
[3] = target: Carbonic anhydrase 2 (Bos taurus) (UniProt P00921); experiment: Compound was tested for the binding affinity towards Carbonic anhydrase II by competitive fluorescence assay with dansylamide
[4] = Evaluation of ionization constant between octanol and 20 mM phosphate buffer (pH =7.5); assay type: physicochemical; conditions: octanol/20 mM phosphate buffer

Sequence of Carbonic anhydrase 2 (Bos taurus) (P00921 2-260 limits assumed): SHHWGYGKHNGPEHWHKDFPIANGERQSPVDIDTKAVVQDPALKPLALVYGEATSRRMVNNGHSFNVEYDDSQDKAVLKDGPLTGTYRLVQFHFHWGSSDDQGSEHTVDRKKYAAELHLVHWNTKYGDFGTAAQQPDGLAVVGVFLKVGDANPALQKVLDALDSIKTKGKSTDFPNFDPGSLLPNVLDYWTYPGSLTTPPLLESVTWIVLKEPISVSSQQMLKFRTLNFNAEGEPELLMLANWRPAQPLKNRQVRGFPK

| Compound | logD [1] | Kb [2] [M⁻¹] | Kb [3] [M⁻¹] | pKa [4] |
| --- | --- | --- | --- | --- |
| CCCCCC(=O)NCc1ccc(S(N)(=O)=O)cc1 | 1.23 | 5.1e+06 |  |  |
| CCC(CC)C(=O)NCc1ccc(S(N)(=O)=O)cc1 | 1 | 2.9e+06 |  |  |
| CCC(=O)NCc1ccc(S(N)(=O)=O)cc1 |  |  |  | 9.9 |
| CC(C)(C)CC(=O)NCc1ccc(S(N)(=O)=O)cc1 | 1.04 | 7.1e+06 |  |  |
| CCCN(CCC)C(=O)c1ccc(S(N)(=O)=O)cc1 | 2.08 | 1.9e+07 |  |  |
| NS(=O)(=O)c1ccc(CNC(=O)CC2CCCCC2)cc1 | 1.62 | 1.3e+07 |  |  |
| NS(=O)(=O)c1ccc(C(=O)NCC(F)(F)C(F)(F)C(F)(F)F)cc1 | 2.04 | 1.1e+09 |  |  |
| CCCCCCNC(=O)c1ccc(S(N)(=O)=O)cc1 | 2.21 | 1.3e+08 |  |  |
| CN(C)C(=O)c1ccc(S(N)(=O)=O)cc1 | 0.146 | 1.1e+07 |  |  |
| NS(=O)(=O)c1ccc(CNC(=O)CCC2CCCC2)cc1 | 1.63 | 1.2e+07 |  |  |
| NS(=O)(=O)c1ccc(CNC(=O)C(F)(F)C(F)(F)F)cc1 |  |  |  | 9.8 |
| NS(=O)(=O)c1ccc(CNC(=O)C2CCCCC2)cc1 | 1.08 | 7.6e+06 |  |  |
| CC1(C)C(C(=O)NCc2ccc(S(N)(=O)=O)cc2)C1(C)C | 1.57 | 1.1e+07 |  |  |
| NS(=O)(=O)c1ccc(C(=O)NCC(F)(F)C(F)(F)F)cc1 | 1.52 | 1.8e+08 |  |  |

Other lines, results leading:

| logD [1] | Kb [2] [M⁻¹] | Kb [3] [M⁻¹] | pKa [4] | Compound |
| --- | --- | --- | --- | --- |
| 0.531 | 2.6e+07 |  |  | CCCNC(=O)c1ccc(S(N)(=O)=O)cc1 |
| 1.84 |  | 1.2e+07 |  | CCCCCCCC(=O)NCc1ccc(S(N)(=O)=O)cc1 |
| 1.11 | 6.3e+07 |  |  | CCCCNC(=O)c1ccc(S(N)(=O)=O)cc1 |
|  |  |  | 10.1 | NS(=O)(=O)c1ccc(CNC(=O)C(F)(F)F)cc1 |
|  |  |  | 10.2 | CC(=O)NCc1ccc(S(N)(=O)=O)cc1 |
| 1.04 | 4.8e+06 |  |  | CC(C)CCC(=O)NCc1ccc(S(N)(=O)=O)cc1 |
| 1.46 | 5.7e+06 |  |  | CCCCCCC(=O)NCc1ccc(S(N)(=O)=O)cc1 |
| 0.778 | 6e+06 |  |  | NS(=O)(=O)c1ccc(CNC(=O)C2CCCC2)cc1 |
| 0.845 | 4.7e+07 |  |  | NS(=O)(=O)c1ccc(C(=O)NCC(F)(F)F)cc1 |
| 1.08 | 7.6e+06 |  |  | NS(=O)(=O)c1ccc(CNC(=O)CC2CCCC2)cc1 |
| 0.929 | 1.7e+07 |  |  | CCN(CC)C(=O)c1ccc(S(N)(=O)=O)cc1 |
| 1.49 | 1e+07 |  |  | NS(=O)(=O)c1ccc(CNC(=O)C2CCCCCC2)cc1 |
| 1.32 | 5.7e+06 |  |  | CCCC(C)CC(=O)NCc1ccc(S(N)(=O)=O)cc1 (centres undefined) |
| 0.176 | 5.9e+06 |  |  | CCNC(=O)c1ccc(S(N)(=O)=O)cc1 |
| 1.84 | 7.1e+06 |  |  | CCCCC(CC)C(=O)NCc1ccc(S(N)(=O)=O)cc1 (centres undefined) |
